# Test results: patent US4430335A (priority 1983, dated 1984)
# System: mice
# Parameters: species or system mice (male, CD-1)
# Conditions: mouse, in vivo
smiles,measurement,value
CCC(=O)O[C@](Cc1ccccc1)(c1ccccc1)[C@H](C)CN(C)C [propoxyphine],"Dose Subcutaneously (sc) [*= ED50 ], 50 % Inhibition of phenylquinone writhing",3.4
